Data as given in patent publication US8895745B2, “Bicyclic heterocyclic compounds as FGFR inhibitors” (Astex Therapeutics Limited, priority 2006, dated 2014).
Structures can show the parent of a compound that is named as a salt.

What follows are molecules tested on LP-1 cell line (assay: Cell-based pERK ELISA method, LP-1 cells). Conditions: Homo sapiens, LP-1, read-out: IC50 less than 1 μM or at least 50% inhibition at a concentration of 1 μM, LP-1 pERK ELISA.

SMILES | IC50 [µM]
COc1cc(NC(=O)NCC(F)(F)F)cc(-c2cnc3cc(-c4ccc(F)cc4)ccn23)c1 [Example 217, 1-{3-[7-(4-Fluoro-phenyl)-imidazo[1,2-a]pyridin-3-yl]-5-methoxy-phenyl}-3-(2,2,2-trifluoro-ethyl)-urea] | < 1
O=C(NCC(F)(F)F)Nc1cncc(-c2cnc3cc(-c4ccc(F)cc4)ccn23)c1 [Example 218, 1-{5-[7-(4-Fluoro-phenyl)-imidazo[1,2-a]pyridin-3-yl]-pyridin-3-yl}-3-(2,2,2-trifluoro-ethyl)-urea] | < 1
O=C(NCC(F)(F)F)Nc1cccc(-c2cnc3cc(-c4cccc(CO)c4)ccn23)c1 [Example 219, 1-{3-[7-(3-Hydroxy-methyl-phenyl)-imidazo[1,2-a]pyridin-3-yl]-phenyl}-3-(2,2,2-trifluoro-ethyl)-urea] | < 1
CN1CCN(C(=O)c2cccc(-c3ccn4c(-c5cccc(NC(=O)NCC(F)(F)F)c5)cnc4c3)c2)CC1 [Example 220, 1-(3-{7-[3-(4-Methyl-piperazine-1-carbonyl)-phenyl]-imidazo[1,2-a]pyridin-3-yl}-phenyl)-3-(2,2,2-trifluoro-ethyl)-urea] | < 1
Cc1ccn2c(-c3cccc(NC(=O)NCC(F)(F)F)c3)cnc2c1 [Example 225] | < 1
CCNC(=O)Nc1cccc(-c2cnc3cc(-c4cccc(CN5CCN(C)CC5)c4)ccn23)c1 [Example 227] | < 1
O=C(NCC(F)(F)F)Nc1cccc(-c2cnc3cc(Cl)ccn23)c1 [Example 228] | < 1
O=C(NCC(F)F)Nc1cccc(-c2cnc3cc(-c4ccc(F)cc4)ccn23)c1 [Example 229, 1-(2,2-Difluoro-ethyl)-3-{3-[7-(4-fluoro-phenyl)-imidazo[1,2-a]pyridin-3-yl]-phenyl}-urea Hydrochloride] | < 1
Cc1nn(C)c(C)c1-c1ccn2c(-c3cccc(NC(=O)NCC(F)(F)F)c3)cnc2c1 [Example 234, 1-(2,2,2-Trifluoro-ethyl)-3-{3-[7-(1,3,5-trimethyl-1H-pyrazol-4-yl)-imidazo[1,2-a]pyridin-3-yl]-phenyl}-urea] | < 1
CC(C)Oc1cc(NC(=O)NCC(F)(F)F)cc(-c2cnc3cc(-c4ccc(F)cc4)ccn23)c1 [Example 238, 1-{3-[7-(4-Fluoro-phenyl)-imidazo[1,2-a]pyridin-3-yl]-5-isopropoxy-phenyl}-3-(2,2,2-trifluoro-ethyl)-urea] | < 1
CS(=O)(=O)NCc1cccc(-c2ccn3c(-c4cccc(NC(=O)NCC(F)(F)F)c4)cnc3c2)c1 [Example 239, N-[3-(3-{3-[3-(2,2,2-Trifluoro-ethyl)-ureido]-phenyl}-imidazo[1,2-a]pyridin-7-yl)-benzyl]-methane-sulfonamide] | < 1
O=C(NCC(F)(F)F)Nc1cccc(-c2cnc3cc(-c4cnco4)ccn23)c1 [Example 240, 1-[3-(7-Oxazol-5-yl-imidazo[1,2-a]pyridin-3-yl)-phenyl]-3-(2,2,2-trifluoro-ethyl)-urea] | < 1
O=C(NCC(F)(F)F)Nc1cccc(-c2cnc3cc(-c4cccc(NC5CCOCC5)c4)ccn23)c1 [Example 244, 1-(3-{7-[3-(Tetrahydro-pyran-4-ylamino)-phenyl]-imidazo[1,2-a]pyridin-3-yl}-phenyl)-3-(2,2,2-trifluoro-ethyl)-urea] | < 1
CN1CCN(c2ccc(-c3ccn4c(-c5cccc(NC(=O)NCC(F)(F)F)c5)cnc4c3)cc2)CC1 [Example 245, 1-(3-{7-[4-(4-Methyl-piperazin-1-yl)-phenyl]-imidazo[1,2-a]pyridin-3-yl}-phenyl)-3-(2,2,2-trifluoro-ethyl)-urea Acetic acid] | < 1
CC(NC(=O)Nc1cccc(-c2cnc3cc(-c4ccc(F)cc4)ccn23)c1)C(F)(F)F (stereo not drawn) [Example 246, 1-{3-[7-(4-Fluoro-phenyl)-imidazo[1,2-a]pyridin-3-yl]-phenyl}-3-(2,2,2-trifluoro-1-methyl-ethyl)-urea] | < 1
CNC(=O)c1cccc(-c2ccn3c(-c4cccc(NC(=O)NCC(F)(F)F)c4)cnc3c2)c1 [Example 247, N-Methyl-3-(3-{3-[3-(2,2,2-trifluoro-ethyl)-ureido]-phenyl}-imidazo[1,2-a]pyridin-7-yl)-benzemide Formate] | < 1
NS(=O)(=O)c1cccc(-c2ccn3c(-c4cccc(NC(=O)NCC(F)(F)F)c4)cnc3c2)c1 [Example 249, 3-(3-{3-[3-(2,2,2-Trifluoro-ethyl)-ureido]-phenyl}-imidazo[1,2-a]pyridin-7-yl)-benzene-sulfonamide formate] | < 1
O=C(NCC(F)(F)F)Nc1cccc(-c2cnc3cc(-c4cccc(C(=O)N5CCNCC5)c4)ccn23)c1 [Example 250, 1-(3-{7-[3-(Piperazine-1-carbonyl)-phenyl]-imidazo[1,2-a]pyridin-3-yl}-phenyl)-3-(2,2,2-trifluoro-ethyl)-urea hydrochloride] | < 1
CS(=O)(=O)c1cccc(-c2ccn3c(-c4cccc(NC(=O)NCC(F)(F)F)c4)cnc3c2)c1 [Example 251, 1-{3-[7-(3-Methane-sulfonyl-phenyl)-imidazo[1,2-a]pyridin-3-yl]-phenyl}-3-(2,2,2-trifluoro-ethyl)-urea formate] | < 1
O=C(NCC(F)(F)F)Nc1ccc(F)c(-c2cnc3cc(Cl)ccn23)c1 [Example 252, 1-[3-(7-Chloro-imidazo[1,2-a]pyridin-3-yl)-4-fluoro-phenyl]-3-(2,2,2-trifluoro-ethyl)-urea] | < 1
O=C(NCC(F)(F)F)Nc1ccc(F)c(-c2cnc3cc(-c4ccc(F)cc4)ccn23)c1 [Example 253, 1-{4-Fluoro-3-[7-(4-fluoro-phenyl)-imidazo[1,2-a]pyridin-3-yl]-phenyl}-3-(2,2,2-trifluoro-ethyl)-urea] | < 1
O=C(NCC(F)(F)F)Nc1cccc(-c2cnc3cc(-c4cc(F)cc(F)c4)ccn23)c1 [Example 254, 1-{3-[7-(3,5-Difluoro-phenyl)-imidazo[1,2-a]pyridin-3-yl]-phenyl}-3-(2,2,2-trifluoro-ethyl)-urea] | < 1
CCCn1cc(-c2ccn3c(-c4cccc(NC(=O)NCC(F)(F)F)c4)cnc3c2)cn1 [Example 256, 1-{3-[7-(1-Propyl-1H-pyrazol-4-yl)-imidazo[1,2-a]pyridin-3-yl]-phenyl}-3-(2,2,2-trifluoro-ethyl)-urea formate] | < 1
O=C(NCC(F)(F)F)Nc1cc(CO)cc(-c2cnc3cc(-c4ccc(F)cc4)ccn23)c1 [Example 258, 1-{3-[7-(4-Fluoro-phenyl)-imidazo[1,2-a]pyridin-3-yl]-5-hydroxymethyl-phenyl}-3-(2,2,2-trifluoro-ethyl)-urea] | < 1

More lines, now with the values ahead:

IC50 [µM] | SMILES
< 1 | O=C(NCC(F)(F)F)Nc1cccc(-c2cnc3cc(-c4cccc(CN5CCOCC5)c4)ccn23)c1 [Example 184, 1-{3-[7-(3-Morpholin-4-ylmethyl-phenyl)-imidazo[1,2-a]pyridin-3-yl]-phenyl}-3-(2,2,2-trifluoro-ethyl)-urea Hydrochloride]
< 1 | O=C(NCC(F)(F)F)Nc1cccc(-c2cnn3cc(-c4cccc(CN5CCOCC5)c4)cnc23)c1 [Example 189, 1-{3-[6-(3-Morpholin-4-ylmethyl-phenyl)-pyrazolo[1,5-a]pyrimidin-3-yl]-phenyl}-3-(2,2,2-trifluoro-ethyl)-urea Hydrochloride]
< 1 | CC(=O)N1CCC(Oc2cccc(-c3ccn4c(-c5cccc(NC(=O)NCC(F)(F)F)c5)cnc4c3)c2)CC1 [Example 193, 1-(3-{7-[3-(1-Acetyl-piperidin-4-yloxy)-phenyl]-imidazo[1,2-a]pyridin-3-yl}-phenyl)-3-(2,2,2-trifluoro-ethyl)-urea Formate]
< 1 | CCNC(=O)Nc1cncc(-c2cnn3cc(-c4ccc(F)cc4)cnc23)c1 [Example 197, 1-Ethyl-3-{5-[6-(4-fluoro-phenyl)-pyrazolo[1,5-a]pyrimidin-3-yl]-pyridin-3-yl}-urea]
< 1 | O=C(NCC(F)(F)F)Nc1cccc(-c2cnc3cc(-c4cccc(OC5CCNCC5)c4)ccn23)c1 [Example 200, 1-(3-{7-[3-(Piperidin-4-yloxy)-phenyl]-imidazo[1,2-a]pyridin-3-yl}-phenyl)-3-(2,2,2-trifluoro-ethyl)-urea]
< 1 | O=C(NCC(F)(F)F)Nc1cccc(-c2cnc3cc(N4CCC4)ccn23)c1 [Example 202, 1-[3-(7-Azetidin-1-yl-imidazo[1,2-a]pyridin-3-yl)-phenyl]-3-(2,2,2-trifluoro-ethyl)-urea]
< 1 | CCNC(=O)Nc1cc(-c2cnn3cc(-c4ccc(F)cc4)cnc23)ccn1 [Example 204, 1-Ethyl-3-{4-[6-(4-fluoro-phenyl)-pyrazolo[1,5-a]pyrimidin-3-yl]-pyridin-2-yl}-urea]
< 1 | O=C1CN(Cc2cccc(-c3ccn4c(-c5cccc(NC(=O)NCC(F)(F)F)c5)cnc4c3)c2)CCN1 [Example 206, 1-(3-{7-[3-(3-Oxo-piperazin-1-ylmethyl)-phenyl]-imidazo[1,2-a]pyridin-3-yl}-phenyl)-3-(2,2,2-trifluoro-ethyl)-urea]
< 1 | O=C(NCC(F)(F)F)Nc1cccc(-c2cnc3cc(-c4ccc(=O)n(CCCN5CCCCC5)c4)ccn23)c1 [Example 208, 1-(3-{7-[6-Oxo-1-(3-piperidin-1-yl-propyl)-1,6-dihydro-pyridin-3-yl]-imidazo[1,2-a]pyridin-3-yl}-phenyl)-3-(2,2,2-trifluoro-ethyl)-urea Hydrochloride]
< 1 | O=C(NCC(F)(F)F)Nc1cccc(-c2cnc3cc(-c4ccnc(OC5CCOCC5)c4)ccn23)c1 [Example 212, 1-(3-{7-[2-(Tetrahydro-pyran-4-yloxy)-pyridin-4-yl]-imidazo[1,2-a]pyridin-3-yl}-phenyl)-3-(2,2,2-trifluoro-ethyl)-urea]
< 1 | N#Cc1cc(NC(=O)NCC(F)(F)F)cc(-c2cnc3cc(-c4ccc(F)cc4)ccn23)c1 [Example 214, 1-{3-Cyano-5-[7-(4-fluoro-phenyl)-imidazo[1,2-a]pyridin-3-yl]-phenyl}-3-(2,2,2-trifluoro-ethyl)-urea]
< 1 | CCNC(=O)Nc1cc(OC)cc(-c2cnc3cc(-c4ccc(F)cc4)ccn23)c1 [Example 216, 1-Ethyl-3-{3-[7-(4-fluoro-phenyl)-imidazo[1,2-a]pyridin-3-yl]-5-methoxy-phenyl}-urea]
